Assay results published in publication PMC3814572, “Identification of Novel Compounds Inhibiting Chikungunya Virus-Induced Cell Death by High Throughput Screening of a Kinase Inhibitor Library” (PLoS Neglected Tropical Diseases, 2013).
Read-outs that look alike come from different tables or passages of the source.

Columns and labels:
CHIKV-118-GFP [1] = assay: Resazurin reduction assay, dose-response of inhibition of CHIKV-associated cell death in HuH-7; conditions: for EC50: Chikungunya virus, Huh-7, 72 h; for SI (CC50/EC50): minimum SI based on the highest concentration of compound tested
CHIKV-118-GFP [2] = assay: Image-based high-content assay of CHIKV-118-GFP infectivity in HuH-7; type: cell-based, Chikungunya virus; conditions: for percentage of infected cells / inhibition at 20 µM / inhibition at 50 µM: 24 hrs; for observed apoptotic blebs associated with CHIKV infection: 24 hpi; for inhibition at 20 µM / inhibition at 50 µM: Chikungunya virus, read-out: inhibition of CHIKV-118-GFP infection
[3] = Resazurin reduction assay, toxicity in MOCK-infected (non-infected) HuH-7; conditions: human
HuH-7 cells [4] = assay: Cell number by DAPI-stained nuclei imaging in HuH-7; conditions: 50 µM
HuH-7 cells [5] = assay: Resazurin reduction assay, toxicity in MOCK-infected (non-infected) HuH-7; conditions: HuH-7
CHIKV-118-GFP [6] = assay: Microneutralization assay (protection against CHIKV-induced CPE); conditions: 50 pfu CHIKV-118-GFP, 72 hrs, HuH-7
CHIKV-118-GFP [7] = assay: Virus yield reduction assay (plaque assay of culture medium); conditions: 24 hrs, culture supernatant of HuH-7
HuH-7 cells [8] = conditions: human
in vitro = conditions: human
Huh-7.5 cells = conditions: 10 µM, Huh-7.5, 72 hrs; cited from earlier work
DENV2 (BR DEN2 01-01) = conditions: 10 µM, Huh-7.5, 72 hrs; cited from earlier work
[9] = read-out: EC50 (concentration showing 50% inhibition relative to the maximum inhibition achieved)

In the case of `COc1ccc(-c2coc3c(C(=O)Nc4cccnc4)cccc23)c(C)c1` [CND0366], the EC50 (CHIKV-118-GFP [1]; [9]) is reported as 7.1 µM, the “SI (CC50/EC50)” value (CHIKV-118-GFP [1]) is reported as over 7.0 and the “percentage of infected cells” value (CHIKV-118-GFP [2]; 20 µM) is reported as 94.4%. It also gave a CC50 at 72 h [3] of over 50 µM.
For `CN(C)CCCN1c2ccccc2Sc2ccc(Cl)cc21` [CPZ, Chlorpromazine], the “reduction of cell number” value (HuH-7 cells [4]; 24 hrs) was 86%, the “reduction of cell number” value (HuH-7 cells [4]; 48 hrs) was over 99.9% and the “reduction of cell number” value (HuH-7 cells [4]; 72 hrs) was over 99.9%. The “reduction of cell number” value (HuH-7 cells [4]; 96 hrs) was over 99.9% and the “fluorescence readout after resazurin treatment” value (HuH-7 cells [5]; 50 µM, 72 hpi) was 240,842±14,730 RFU.
With `COc1ccc(-c2ccc(C(=O)NC(C)C)c3occc23)c(C)c1` [CND0335] the EC50 (CHIKV-118-GFP [1]; [9]) was 3.3 µM, the “SI (CC50/EC50)” value (CHIKV-118-GFP [1]) was over 15 and the “percentage of infected cells” value (CHIKV-118-GFP [2]; 20 µM) was 90.9%. It also gave a CC50 at 72 h [3] of over 50 µM.
For `COc1ccc(-c2coc3c(C(=O)NC(C)C)cccc23)c(C)c1` [CND0415], the EC50 (CHIKV-118-GFP [1]; [9]) was 6.2 µM, the “SI (CC50/EC50)” value (CHIKV-118-GFP [1]) was over 8.1 and the “percentage of infected cells” value (CHIKV-118-GFP [2]; 20 µM) was 96.4%. It also gave a CC50 at 72 h [3] of over 50 µM.
For `COc1ccc(-c2ccc(C(=O)Nc3ccc(C(C)C)cc3)c3occc23)c(C)c1` [CND0364], the “lowest concentration that inhibited CHIKV-induced CPE (clearing of cell monolayer)” value (CHIKV-118-GFP [6]) was 12.5 µM, the “log titer reduction vs DMSO vehicle control” value (from here on “log titer reduction”) (CHIKV-118-GFP [7]; 20 µM) was 1.69 log and the EC50 (CHIKV-118-GFP [1]; [9]) was 6.2 µM. The “SI (CC50/EC50)” value (CHIKV-118-GFP [1]) was over 8.1, the “percentage of infected cells” value (CHIKV-118-GFP [2]; 20 µM) was 80.3% and the “observed apoptotic blebs associated with CHIKV infection” value (“observed apoptotic blebs associated” below) (CHIKV-118-GFP [2]) was “significantly lower”. For the same molecule, the inhibition at 20 µM (CHIKV-118-GFP [2]; 20 µM) was 19.7% and the CC50 at 72 h [3] was over 50 µM.
For `CCN(CC)CCCC(C)Nc1ccnc2cc(Cl)ccc12` (stereo not drawn) [CQ, Chloroquine, reference compound], the “log titer reduction” value (CHIKV-118-GFP [7]; 50 µM) was 1.88 log, the EC50 (CHIKV-118-GFP [1]) was 29 µM and the “percentage of infected cells” value (CHIKV-118-GFP [2]; 50 µM) was 24.4%. For the same molecule, the “observed apoptotic blebs associated” value (CHIKV-118-GFP [2]) was “still prominent”, the inhibition at 50 µM (CHIKV-118-GFP [2]; 50 µM) was 75.6% and the CC50 at 72 h [3] was 90 µM.
Work on `CO/C1=C\C(C)=C\[C@@H](C)[C@@H](O)[C@@H](C)C/C(C)=C/C=C/[C@H](OC)[C@@H]([C@@H](C)[C@@H](O)[C@H](C)[C@@]2(O)C[C@@H](O)[C@H](C)[C@@H](C(C)C)O2)OC1=O` [BAF, Bafilomycin A1] yielded a CC50 (HuH-7 cells [8]) of 0.237 µM, an EC50 (CHIKV-118-GFP [1]) of 0.056 µM and a CC50 (in vitro) of 0.09 µM.
With `COc1c(C)c2c(c(O)c1C/C=C(\C)CCC(=O)O)C(=O)OC2` [MPA, Mycophenolic acid, reference compound] the EC50 (CHIKV-118-GFP [1]) was 1.6 µM, the “percentage of infected cells” value (CHIKV-118-GFP [2]; 50 µM) was 7.34% and the “observed apoptotic blebs associated” value (CHIKV-118-GFP [2]) was “significantly lower”. The inhibition at 50 µM (CHIKV-118-GFP [2]; 50 µM) was over 92%, the “cytotoxicity at the highest concentration tested” value (HuH-7 cells [5]; 100 µM) was “no observable cytotoxicity” and the CC50 at 72 h [3] was over 100 µM.
For `COc1cccc(Nc2cc3c(cn2)cc(-c2cccc(C(F)(F)F)c2)n3C)c1` [CND0545], the “lowest concentration that inhibited CHIKV-induced CPE (clearing of cell monolayer)” value (CHIKV-118-GFP [6]) was 25 µM, the “log titer reduction” value (CHIKV-118-GFP [7]; 20 µM) was 2.01 log and the EC50 (CHIKV-118-GFP [1]; [9]) was 5.6 µM. The “SI (CC50/EC50)” value (CHIKV-118-GFP [1]) was over 8.9, the “percentage of infected cells” value (CHIKV-118-GFP [2]; 20 µM) was 71.7% and the “observed apoptotic blebs associated” value (CHIKV-118-GFP [2]) was “significantly lower”. For the same molecule, the inhibition at 20 µM (CHIKV-118-GFP [2]; 20 µM) was 28.3% and the CC50 at 72 h [3] was over 50 µM.
In the case of `CC(C)c1ccc(NC(=O)c2csc(C(O)C(C)C)n2)cc1` (stereo not drawn) [CND3514], the “toxicity in DENV2 screening (cell number)” value (Huh-7.5 cells) is given as 39.37%, the EC50 (CHIKV-118-GFP [1]; [9]) is given as 2.2 µM and the “SI (CC50/EC50)” value (CHIKV-118-GFP [1]) is given as over 22.7. The “percentage of infected cells” value (CHIKV-118-GFP [2]; 20 µM) was 92.2%, the CC50 at 72 h [3] was over 50 µM and the “inhibition against DENV2” value (DENV2 (BR DEN2 01-01)) was 67.87%.
